Test results: patent publication US20240174690A1, “ANNULATED 2-AMINO-3-CYANO THIOPHENES AND DERIVATIVES FOR THE TREATMENT OF CANCER” (BOEHRINGER INGELHEIM INTERNATIONAL GMBH, priority 2021, published 2024)
Converted amounts (≈) assume the structure as drawn. Like-named read-outs stand apart in the source and are kept apart here.

How the values were obtained:
[1] = Solubility measurement (DMSO solution method), McIlvaine buffer pH 4.5 or 6.8; type: physicochemical; conditions: DMSO stock diluted to 250 μM, 24 h shaking at ambient temperature; for solubility at 24 h: aqueous buffer, kinetic from dmso stock
Method in brief: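 DMSO stock diluted into McIlvaine buffer, pH 4.5 or 6.8, to 250 µM final, shaken 24 h at ambient temperature. Precipitate removed by filtration; filtrate quantified by LC-UV against a fully dissolved reference in acetonitrile/water 1:1.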

[2] = test system: AsPC-1 cells; assay: AsPC-1 CTG proliferation assay (120 h) (pancreatic cancer, G12D); type: cell-based
Method in brief: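 AsPC-1 cells (KRAS G12D), 2000/well in RPMI with 10% FCS, seeded overnight, then treated with compound for 120 h at 37 °C. Viability by CellTiter-Glo luminescence as percent of DMSO control. IC50 from a four-parameter non-linear fit.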

[3] = test system: KRAS G12D-dependent Ba/F3 cells; assay: Ba/F3 proliferation assay, KRAS G12D; type: cell-based; conditions: AlamarBlue
Method in brief: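 Ba/F3 cells retrovirally transduced with KRAS G12 mutants, puromycin-selected and grown without IL-3, so proliferation depends on the mutant KRAS. Compounds tested in technical duplicates; viability read by AlamarBlue fluorescence, with curve fitting for potency.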

[4] = test system: LOVO cells; assay: LOVO CTG proliferation assay (120 h) (CRC, G13D); type: cell-based; conditions: CTG 120 h
Method in brief: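 LOVO cells, 1000 per well in DMEM + 10% FCS, were plated overnight and then dosed with compound from DMSO stock. After 120 h at 37 °C, viability was read by CellTiter-Glo luminescence as a percentage of DMSO controls. IC50 was derived by four-parameter non-linear regression.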

[5] = test system: NCI-H2122 cells; assay: NCI-H2122 CTG proliferation assay (120 h) (NSCLC, G12C); type: cell-based
Method in brief: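 NCI-H2122 cells (KRAS G12C NSCLC), 200 per well in RPMI with 10% FCS, were dosed with compound on day 1 and incubated 120 h at 37 °C. Viability was read by CellTiter-Glo luminescence as percent of DMSO control, and IC50 was fitted with a four-parameter model.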

[6] = McIlvaine buffer pH 4.5, read-out: solubility pH 4.5
[7] = McIlvaine buffer pH 6.8, read-out: solubility pH 6.8

SMILES | solubility at 24 h [1, 6] [µg/mL] | solubility at 24 h [1, 7] [µg/mL] | IC50 ([2]; Homo sapiens, ASPC1) [µM] | IC50 ([3]; Mus musculus, BaF3, 72 h) [µM] | IC50 ([4]; Homo sapiens) [µM] | IC50 ([5]; Homo sapiens) [µM] | solubility pH 4.5 ([1]; McIlvaine buffer pH 4.5) [μg/ml] | solubility pH 6.8 ([1]; McIlvaine buffer pH 6.8) [μg/ml] | IC50 [2] [µM] | IC50 ([3]; 72 h) [µM] | IC50 [4] [µM] | IC50 [5] [µM]
C[C@H](Oc1cc(-n2ccc(C(=O)N3CCCC3)n2)nc(-c2noc3c2CCC[C@@]32CCCc3sc(N)c(C#N)c32)n1)[C@@H]1CCCN1C [II-19] | 89 (≈ 136 µM) | < 1 | 0.87 | 0.01 | 0.021 | 0.019 |  |  |  |  |  | 
C[C@H](Oc1cc(N2CC[C@H](N3CCCCC3)C2)nc(-c2noc3c2CCC[C@@]32CCCc3sc(N)c(C#N)c32)n1)[C@@H]1CCCN1C [II-12] | > 143 | > 137 | 0.544 | 0.02 | 0.401 | 1.39 |  |  |  |  |  | 
C[C@H](Oc1cc(-c2ccn(C3COC3)n2)nc(-c2onc3c2CCC[C@@]32CCCc3sc(N)c(C#N)c32)n1)[C@@H]1CCCN1C [I-34] | > 135 | 92 (≈ 150 µM) | 4.15 | 0.038 | 0.161 | 1.07 |  |  |  |  |  | 
C[C@H]1CN(C)CCCN1c1cc(N2CCN(C)CC2)nc(-c2noc3c2CCC[C@@]32CCCc3sc(N)c(C#N)c32)n1 [II-30] | > 136 | > 125 | 2.39 | 0.273 | > 25 | 3.55 |  |  |  |  |  | 
C[C@H](Oc1cc(N2CCNC3(CCCC3)C2)nc(-c2noc3c2CCC[C@@]32CCCc3sc(N)c(C#N)c32)n1)[C@@H]1CCCN1C [II-41] | > 138 | > 130 | 0.269 | 0.026 | 0.703 | 1.65 |  |  |  |  |  | 
C[C@H](Oc1cc(N2CC(N(C)C)C2)nc(-c2noc3c2CCC[C@@]32CCCc3sc(N)c(C#N)c32)n1)[C@@H]1CCCN1C [II-7] | > 141 | > 134 | 1.64 | 0.094 | 0.835 | 3.5 |  |  |  |  |  | 
C[C@H](Oc1cc(-c2ccn(C)n2)nc(-c2noc3c2CCC[C@@]32CCCc3sc(N)c(C#N)c32)n1)[C@@H]1C[C@@H](F)CN1C [II-27] | 108 (≈ 183 µM) | < 1 | 4.11 | 0.049 | 0.345 | 0.898 |  |  |  |  |  | 
C[C@H](Oc1cc(-n2ccnc2)nc(-c2onc3c2CCC[C@@]32CCCc3sc(N)c(C#N)c32)n1)[C@@H]1CCCN1C [I-20] | > 157 | 98 (≈ 176 µM) | 5.42 | 0.03 | 0.298 | 1.36 |  |  |  |  |  | 
C[C@H](Oc1cc(C2CCCO2)nc(-c2noc3c2CCC[C@@]32CCCc3sc(N)c(C#N)c32)n1)[C@@H]1CCCN1C (stereo partly drawn) [II-44] | > 115 | 104 (≈ 185 µM) | 2.16 | 0.032 | 0.092 | 1.58 |  |  |  |  |  | 
C[C@H](Oc1cc(-n2ccnn2)nc(-c2onc3c2CCC[C@@]32CCCc3sc(N)c(C#N)c32)n1)[C@@H]1CCCN1C [I-32] | 100 (≈ 179 µM) | 14 (≈ 25.1 µM) | 4.44 | 0.014 | 0.159 | 1.51 |  |  |  |  |  | 
C[C@H](Oc1cc(N2CCNC3(COC3)C2)nc(-c2noc3c2CCC[C@@]32CCCc3sc(N)c(C#N)c32)n1)[C@@H]1CCCN1C [II-31] | > 151 | > 133 | 0.042 | 0.004 | 0.182 | 2.55 |  |  |  |  |  | 
C[C@@H]1CN(c2cc(O[C@@H](C)[C@@H]3CCCN3C)nc(-c3noc4c3CCC[C@@]43CCCc4sc(N)c(C#N)c43)n2)C[C@H](C)N1 [II-36] | > 146 | > 140 | 0.99 | 0.064 | 16.6 | 3.48 |  |  |  |  |  | 
C[C@H](Oc1cc(N2CCNC(C)(C)C2)nc(-c2noc3c2CCC[C@@]32CCCc3sc(N)c(C#N)c32)n1)[C@@H]1CCCN1C [II-32] | > 121 | 117 (≈ 194 µM) | 0.385 | 0.003 | 8.32 | 3.3 |  |  |  |  |  | 
C[C@H](Oc1cc(-c2ccn3ncnc3c2)nc(-c2onc3c2CCC[C@@]32CCCc3sc(N)c(C#N)c32)n1)[C@@H]1CCCN1C [I-33] | 8 (≈ 13.2 µM) | 4 (≈ 6.58 µM) | 3.71 | 0.081 | 0.574 | 1.42 |  |  |  |  |  | 
C[C@H](Oc1cc(N2CCNC3(COC3)C2)nc(-c2onc3c2CCC[C@@]32CCCc3sc(N)c(C#N)c32)n1)[C@@H]1CCCN1C [I-4] | > 148 | > 140 | 0.064 | 0.009 | 0.205 | 3.75 |  |  |  |  |  | 
C[C@H](Oc1cc(N2C[C@H](C)N(C)[C@@H](C)C2)nc(-c2onc3c2CCC[C@@]32CCCc3sc(N)c(C#N)c32)n1)[C@@H]1CCCN1C [I-43] | > 346 | > 306 | 1.01 | 0.063 | 0.554 | 1.41 |  |  |  |  |  | 
C[C@H](Oc1cc(N2C[C@@H](N(C)C)[C@@H](O)C2)nc(-c2noc3c2CCC[C@@]32CCCc3sc(N)c(C#N)c32)n1)[C@@H]1CCCN1C [II-10] | > 143 | > 135 | 0.811 | 0.116 | 0.972 | 8.44 |  |  |  |  |  | 
C[C@H](Oc1cc(-n2nccn2)nc(-c2onc3c2CCC[C@@]32CCCc3sc(N)c(C#N)c32)n1)[C@@H]1CCCN1C [I-29] | > 114 | 82 (≈ 147 µM) | 10.3 | 0.071 | 1.65 | 3.13 |  |  |  |  |  | 
C[C@H](Oc1cc(-c2ccn(C)n2)nc(-c2onc3c2CCC[C@@]32CCCc3sc(N)c(C#N)c32)n1)[C@@H]1CCCN1C [I-21] |  |  |  |  |  |  | 110 | 33 | 2.98 | 0.014 | 0.128 | 1.43
C[C@H](Oc1cc(-c2ccc(N)nc2)nc(-c2onc3c2CCC[C@@]32CCCc3sc(N)c(C#N)c32)n1)[C@@H]1CCCN1C [I-25] | > 170 | 44 (≈ 75.5 µM) | 3.45 | 0.261 | 1.06 | 1.65 |  |  |  |  |  | 
C[C@H](Oc1cc(-n2ccc(C(N)=O)n2)nc(-c2noc3c2CCC[C@@]32CCCc3sc(N)c(C#N)c32)n1)[C@@H]1CCCN1C [II-21] | 80 (≈ 133 µM) | 34 (≈ 56.7 µM) | 0.694 | 0.023 | 0.029 | 0.128 |  |  |  |  |  | 
C[C@H](Oc1cc(N2CC[C@H](N(C)C)C2)nc(-c2noc3c2CCC[C@@]32CCCc3sc(N)c(C#N)c32)n1)[C@@H]1C[C@@H](F)CN1C [II-15] | > 144 | > 130 | 0.22 | 0.014 | 0.867 | 2.42 |  |  |  |  |  | 
